Where two headings read alike, the source gives them in different places.
How the values were obtained:
[1] = Example 1 trial: adverse events / tolerability; assay type: in vivo, human; settings: 600 mg orally twice daily
[2] = Example 5 trial: safety analyses (adverse events); settings: one severe COVID-19, one aspiration (SARS-CoV-2 negative); not considered related to study medication
From the text: (§1) After randomization, eligible subjects underwent a physical examination, collection of nasopharyngeal swabs, and blood and urine samples for laboratory safety testing and assessment of SARS-CoV-2 antibody titers. Study drug was dispensed, and subjects were followed for 28 days. Subjects were instructed to complete electronic diaries recording oral temperature twice daily and symptom severity once daily in the evening for 21 days and were contacted daily by telephone by site staff on study days 2-7 and 28 to verify compliance and screen for progression to severe illness or other complications. Repeat nasopharyngeal swabs were collected on study days 4 and 10. Follow up blood and urine samples for laboratory safety testing and assessment of SARS-CoV-2 antibody titers were collected on study day 22. Subjects were allowed to use acetaminophen and/or dextromethorphan for symptom relief along with standard-of-care rescue medications. Adverse events were collected continuously throughout the study and monitored until the events resolved.
(§2) Efficacy analyses were based on a modified intention to treat (mITT) population of subjects testing positive for SARS-CoV-2 at baseline.

[3] = system: COVID-19; settings: 600 mg twice daily for seven days; hospitalized moderate to severe COVID-19; cited from earlier work
[4] = system: SARS-CoV-2 RNA; assay type: in vivo; settings: for Mean (SD) Viral Load Change from Baseline / Percent Positive for SARS-CoV-2 RNA: nasopharyngeal swabs; for Percent Positive for SARS-CoV-2 RNA: 177 samples
[5] = system: SARS-CoV-2; assay type: in vivo
[6] = in vivo
From the text: as §1, §2

[7] = 133 subjects with moderate illness at baseline
[8] = all SARS-CoV-2-positive subjects (mITT)
[9] = all SARS-CoV-2-positive subjects (mITT), 600 mg twice daily for 5 days
[10] = all SARS-CoV-2-positive subjects (mITT), listed as NTZ
[11] = all SARS-CoV-2-positive subjects (mITT), listed as nitazoxanide
[12] = subgroup 'May Be' or 'At Increased Risk' for severe COVID-19 per CDC (protocol-defined stratification factor)
[13] = subgroup At High Risk of progressing to severe COVID-19 and/or hospitalization (per EUA documents for monoclonal antibodies)
[14] = subgroup At Increased Risk for severe COVID-19 per CDC

## CC(=O)Oc1ccccc1C(=O)Nc1ncc([N+](=O)[O-])s1 [Nitazoxanide, 2-(acetolyloxy)-N-(5-nitro-2-thiazolyl) benzamide]
[1]; placebo 1.0%
  adverse event: mild chromaturia, subjects: 14.6%
[1]; placebo 4.9%
  adverse event: diarrhea, subjects: 6.6%
[2]
  subjects who died during the study: Two
[3]
  duration of supplemental oxygen vs placebo: reductions
  rate of mechanical ventilation vs placebo: reductions
  rate of mortality vs placebo: reductions
  time to hospital discharge vs placebo: reductions
[4]; Day 4
  Mean (SD) Viral Load Change from Baseline: −0.70 (1.573) log10 copies/mL
  Percent Positive for SARS-CoV-2 RNA: 94%
[4]; Day 10
  Mean (SD) Viral Load Change from Baseline: −2.49 (1.582) log10 copies/mL
  Percent Positive for SARS-CoV-2 RNA: 73%
[4]; single NTZ-treated subject who progressed to severe COVID-19, Day 1 value 7.39
  Viral Load Day 4: 7.39/4.79 log10 RNA copies/mL
[5]; 68 subjects with moderate illness at baseline in nitazoxanide arm, placebo two of 65
  subjects progressing to severe illness: None and none
[5]; [7]
  TSR vs placebo: longer
  time to return to usual health vs placebo: longer
[5]; [8]
  relative reduction in rate of hospitalization, emergency room visit or death vs placebo: 82%
  relative reduction of progression to severe COVID-19 vs placebo: 85%
  subjects experiencing hospitalization, emergency room visit or death (%): 0.5%
  subjects experiencing hospitalization, emergency room visit or death (n/N): 1/184
[5]; [9]
  subjects progressing to severe COVID-19 (%): 0.5%
  subjects progressing to severe COVID-19 (n/N): 1/184
[5]; all SARS-CoV-2-positive subjects (mITT), 600 mg twice daily for 5 days, listed as NTZ
  subjects progressing to severe COVID-19 (%): (0.5%)
[5]; all SARS-CoV-2-positive subjects (mITT), 600 mg twice daily for 5 days, listed as nitazoxanide
  subjects progressing to severe COVID-19 (%): 0.5%
[5]; [10]
  relative reduction in rate of hospitalization, emergency room visit or death vs placebo: 82%
  relative reduction of progression to severe COVID-19 vs placebo: 85%
  subjects experiencing hospitalization, emergency room visit or death (%): (0.5%)
[5]; [11]
  relative reduction in rate of hospitalization, emergency room visit or death vs placebo: 82%
  relative reduction of progression to severe COVID-19 vs placebo: 85%
[5]; all mITT subjects, placebo 12.35 (7.18->21), p=0.88
  Median (IQR) time from first dose to sustained response (TSR): 13.28 (6.26->21) days
[5]; [12]
  relative reduction in rate of hospitalization, emergency room visit or death vs placebo: 81%
  relative reduction of progression to severe COVID-19 vs placebo: 84%
  subjects experiencing hospitalization, emergency room visit or death (%): (0.9%)
  subjects experiencing hospitalization, emergency room visit or death (n/N): 1/112
  subjects progressing to severe COVID-19 (%): (0.9%)
  subjects progressing to severe COVID-19 (n/N): 1/112
[5]; [13]
  relative reduction in rate of hospitalization, emergency room visit or death vs placebo: 77%
  relative reduction of progression to severe COVID-19 vs placebo: 81%
  subjects experiencing hospitalization, emergency room visit or death (%): (1.7%)
  subjects experiencing hospitalization, emergency room visit or death (n/N): 1/60
  subjects progressing to severe COVID-19 (%): (1.7%)
  subjects progressing to severe COVID-19 (n/N): 1/60
[5]; [14]
  relative reduction in rate of hospitalization, emergency room visit or death vs placebo: 81%
  relative reduction of progression to severe COVID-19 vs placebo: 83%
  subjects experiencing hospitalization, emergency room visit or death (%): (1.0%)
  subjects experiencing hospitalization, emergency room visit or death (n/N): 1/104
  subjects progressing to severe COVID-19 (%): (1.0%)
  subjects progressing to severe COVID-19 (n/N): 1/104
[5]; subjects with mild illness at baseline, n=116, placebo 13.4
  median TSR: 10.3 days
[5]; subjects with mild illness at baseline, p=0.0075
  reduction of median time to return to usual health vs placebo: 5.2 days
[5]; subjects with mild illness at baseline, p=0.0932
  reduction of median TSR (time to sustained clinical recovery) vs placebo: 3.1 days
[5]; subjects with mild illness at baseline, placebo 18.4
  median time from first dose until subjects reported returning to usual health: 13.2 days
[6]; human
  subjects reporting at least one adverse event (%): 13.3%
  subjects reporting diarrhea (%): 3.4%
[6]
  subjects reporting at least one adverse event (number): Sixty-three
  subjects reporting serious adverse events: Two
  subjects who discontinued study medication due to adverse events: Two
[6]; po
  safety and tolerability: safe and well tolerated

— patent publication US20230330069A1, “USE OF THIAZOLIDES AGAINST CORONAVIRUSES” (Romark Laboratories, L.C., priority 2020, published 2023)
